One test concerns the target T1, At ΔN IGPD2 construct A (Arabidopsis thaliana, UniProt O23346).
T1 construct: gene HISN5B; N-terminally truncated (delta-N) construct A, longer than construct B; borders only in supplement
The test is described as follows: crystal structure, […] Å. In kind it is binding. The note with it: active site, two manganese ions; racemate.

Another test deals with T2, At ΔN IGPD2 construct B (Arabidopsis thaliana, UniProt O23346).
T2 construct: gene HISN5B; N-terminally truncated (delta-N) construct B, shorter than construct A; borders only in supplement; Mn2+ enzyme; EC 4.2.1.19
T2 sequence (O23346 69-272, stated change not applied): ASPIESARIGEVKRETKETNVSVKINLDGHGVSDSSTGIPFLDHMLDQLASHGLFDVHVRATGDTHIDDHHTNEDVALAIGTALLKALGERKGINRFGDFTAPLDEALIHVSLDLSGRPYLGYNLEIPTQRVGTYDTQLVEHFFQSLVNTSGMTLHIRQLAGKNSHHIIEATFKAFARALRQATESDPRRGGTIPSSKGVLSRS
The test is described as follows: in vitro enzyme inhibition assay; crystal structure. In kind it is biochemical.

T1 sequence (O23346 53-272, stated change not applied): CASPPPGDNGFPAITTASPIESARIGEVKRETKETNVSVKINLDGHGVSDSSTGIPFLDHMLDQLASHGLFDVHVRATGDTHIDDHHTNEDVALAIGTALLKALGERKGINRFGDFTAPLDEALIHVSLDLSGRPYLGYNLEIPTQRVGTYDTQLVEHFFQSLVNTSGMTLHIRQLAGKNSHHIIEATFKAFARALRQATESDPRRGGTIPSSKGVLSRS

Regarding `O=P(O)(O)CC(O)Cn1cncn1` (racemic) [C348, 2‐hydroxy‐3‐(1,2,4‐triazol‐1‐yl) propylphosphonate], the “crystal structure, 1.85 Å” value on At ΔN IGPD2 construct A is “grown in the presence of a racemate of C348 and the structure”.

Usually Ki stands for the dissociation constant of the complex between target and ligand, obtained from inhibition or displacement. The low end stands for tighter binding, the high end for weaker binding. On to `O=P(O)(O)C[C@H](O)Cn1cncn1` [(R)‐C348, 2‐hydroxy‐3‐(1,2,4‐triazol‐1‐yl) propylphosphonate], for which the inhibition constant (Ki) at At ΔN IGPD2 construct B was 15 ± 5 nM.

Consider `O=P(O)(O)C[C@@H](O)Cn1cncn1` [(S)‐C348, 2‐hydroxy‐3‐(1,2,4‐triazol‐1‐yl) propylphosphonate], for which affinity on At ΔN IGPD2 construct B was put at a Ki of 25 ± 3 nM.

These data come from article PMC5113775, “Mirror‐Image Packing Provides a Molecular Basis for the Nanomolar Equipotency of Enantiomers of an Experimental Herbicide” (Angewandte Chemie (International Ed. in English), 2016).
